Results on 2 compounds are retold here after patent publication US6479628B1, “Methods and materials relating to IMPDH and GMP production” (Arch Development Corporation, priority 1988, dated 2002).

The Km is the concentration of substrate that gives half-maximal velocity.

Data set [1] relates to VM1 through VM4 variants of V79 cells. Put plainly: Resistance of stepwise-selected cell variants to MPA cytotoxicity. It is filed as cell-based, Chinese hamster. The protocol:
According to the present invention, the resistance level of one of these cell variants was further increased by a stepwise selection in the presence of increasing concentrations of MPA. After adaptation to the higher concentration of MPA, the cells were seeded in medium containing an increased concentration of MPA at 200 cells per 60-mm petri dish, and MPA-resistant colonies were isolated 8 days later.

Data set [2] concerns IMP1 cell clone (transfected V15 hamster cells). The settings on record: mycophenolic acid 2 μg/mL in culture medium.
Experimental: After introduction of the construct into the hamster cells, mycophenolic acid (2 μg/mL) was added to the culture medium to select for those cells that had integrated the construct into their genetic material. Those cells that have integrated the construct into their genetic material produce the IMPDH enzyme and are therefore resistant to the cytotoxic effects of mycophenolic acid.
[Dulbecco's modified MEM containing 5% fetal bovine serum, aminopterin (2 μg/mL), and mycophenolic acid (25 μg/mL), and supplemented with hypoxanthine (15 μg/mL), thymidine (10 μg/mL), and xanthine (250 μg/mL)]. The ability of the cells to grow in the selective medium is attributable to the production of the E. coli gpt enzyme, which catalyzes the production of xanthine monophosphate from the reaction of xanthine and phosphoribosyl pyroposphate. Presence of the enzyme compensates for the purine de novo synthetic block imposed by the presence of aminopterin and MPA.
A further data set concerns parental V79 cells. The experiment in a line: Resistance of parental cells to MPA cytotoxicity. The data set is classed as cell-based, Chinese hamster.
Data set [3] has as its target purified Chinese hamster IMPDH (Cricetulus griseus, UniProt P12269). The experiment in a line: Kinetic studies of purified IMPDH (IMP-dependent NAD reduction, absorbance at 340 nm).
Experimental: Kinetic studies were carried out by varying the substrate conditions. In all cases, linear reciprocal plots were defined by simple regression analysis of the data.
The next data set deals with V79 cells. The experiment in a line: Growth of control and MNNG-treated V79 cells incubated with MPA. The data set is classed as cell-based, Chinese hamster. Conditions: untreated 5.0±0.3.
For the next data set, the target named is E. coli IMPDH enzyme (Escherichia coli, UniProt P0ADG7). Conditions: unlike mammalian cell enzymes; cited from earlier work.
E. coli IMPDH enzyme, sequence (P0ADG7 whole entry): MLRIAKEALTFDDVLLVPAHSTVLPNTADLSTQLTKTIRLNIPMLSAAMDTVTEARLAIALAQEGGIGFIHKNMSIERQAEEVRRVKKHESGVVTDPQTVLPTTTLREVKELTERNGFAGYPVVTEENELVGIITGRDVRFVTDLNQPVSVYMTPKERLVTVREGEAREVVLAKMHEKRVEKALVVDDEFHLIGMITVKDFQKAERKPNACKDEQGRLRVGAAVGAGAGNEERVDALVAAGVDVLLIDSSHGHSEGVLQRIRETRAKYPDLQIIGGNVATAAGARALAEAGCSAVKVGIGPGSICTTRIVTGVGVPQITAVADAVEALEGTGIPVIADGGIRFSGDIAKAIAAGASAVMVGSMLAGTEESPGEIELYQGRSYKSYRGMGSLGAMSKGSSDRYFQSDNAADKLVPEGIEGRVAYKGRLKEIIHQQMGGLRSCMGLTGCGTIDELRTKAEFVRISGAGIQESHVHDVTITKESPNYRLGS

purified Chinese hamster IMPDH, sequence (P12269 whole entry): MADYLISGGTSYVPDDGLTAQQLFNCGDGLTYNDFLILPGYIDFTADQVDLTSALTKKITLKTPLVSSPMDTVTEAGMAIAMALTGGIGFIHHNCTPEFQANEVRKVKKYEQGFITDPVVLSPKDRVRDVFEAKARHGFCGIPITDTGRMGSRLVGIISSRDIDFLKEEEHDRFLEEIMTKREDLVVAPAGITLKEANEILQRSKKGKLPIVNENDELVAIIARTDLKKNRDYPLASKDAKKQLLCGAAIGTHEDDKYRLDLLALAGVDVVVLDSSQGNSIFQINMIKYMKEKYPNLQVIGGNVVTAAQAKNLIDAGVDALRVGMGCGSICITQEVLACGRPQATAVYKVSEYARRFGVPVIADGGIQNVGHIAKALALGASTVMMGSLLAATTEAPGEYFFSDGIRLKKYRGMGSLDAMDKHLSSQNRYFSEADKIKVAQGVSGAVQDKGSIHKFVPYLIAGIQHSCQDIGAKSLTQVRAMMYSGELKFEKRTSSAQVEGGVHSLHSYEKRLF

In the case of `COc1c(C)c2c(c(O)c1C/C=C(\C)CCC(=O)O)C(=O)OC2` [MPA, mycophenolic acid], the “MPA concentration to which cells are resistant” value in data set [1] (VM1 variant) is 5 µg/mL; in data set [1] (VM2 variant), 10 µg/mL; in data set [1] (VM3 variant), 25 µg/mL; in data set [1] (VM4 variant) it was 50 µg/mL; with parental V79 cells, 0.1 µg/mL. Moreover, the “resistance of cell clone to cytotoxic effects” value in data set [2] was “resistant”. Further, the Ki entry in data set [3] (sensitivity of Chinese hamster enzyme to MPA) is reported as “nanomolar range”. Further, the “cells per Petri dish after 5 days of growth, mean (±SD)” value in the data set on V79 cells (MPA at 0.1 μg/mL) is 1.4±0.2 ×10^6 cells per Petri dish; in the data set on V79 cells (MPA at 0.3 μg/mL), 0.2±0.05 ×10^6 cells per Petri dish. Further, at E. coli IMPDH enzyme, the “sensitivity to the inhibitory effect” value is on record as “insensitive”.

Regarding `NC(=O)c1ccc[n+]([C@@H]2O[C@H](COP(=O)([O-])OP(=O)(O)OC[C@H]3O[C@@H](n4cnc5c(N)ncnc54)[C@H](O)[C@@H]3O)[C@@H](O)[C@H]2O)c1` [NAD], the Km in data set [3] (substrate of Chinese hamster enzyme, linear reciprocal plots) came to 29 µM.
